Structures are written as SMILES.

Inhibition and IC50 data for 53 compounds are collected here from patent publication US20260285869A1, “COMPOUNDS, COMPOSITIONS AND METHODS THEREOF” (HEPAITECH (BEIJING) BIOPHARMA TECHNOLOGY CO., LTD., priority 2023, published 2026).

The target in this assay is T1, human MRGPRX4 (Homo sapiens, UniProt Q96LA9).
T1 construct: expressed in transfected cells
Nature of the assay: MRGPRX4 antagonist calcium assay (FLIPR, Fluo-8) in HEK293T cells stably expressing human MRGPRX4. The class given is cell-based. Conditions: antagonist mode against 0.2 μM deoxycholic acid-3-phosphoric acid; for inhibition at 0.5 µM / inhibition at 2 µM: HEK-293T, HEK293T cells expressing human MRGPRX4; for inhibition at 0.5 µM: compound at 500 nM; for IC50: top conc. 30 μM, ten 3-fold serial dilutions, class symbols; for inhibition at 2 µM: compound at 2 μM. The procedure:
HEK293T cells stably expressing human MRGPRX4 were cultured in DMEM medium supplements with 10% FBS, 100 U/mL penicillin-streptomycin, 20 mM HEPES and 1 μg/mL puromycin at 37° C. with 5% (v/v) CO2. One day before test, the cells were detached using TrypLE™ Express and counted using cell counter. In a 384-well plate cells were seeded at a density of 20,000 cells/well in 20 μL/well planting medium (DMEM medium supplements with 5% FBS, 100 U/mL penicillin-streptomycin and 20 mM HEPES), and incubated overnight at 37° C. with 5% (v/v) CO2. On the day of experiments, the dye solution, prepared following the manufacture's instruction of the Screen Quest™ Fluo-8 No Wash Calcium Assay Kit, was added to each well (20 μL/well) of the cell plate. The cell plate was incubated at 25° C. for 1 hour. Test compounds in different doses were transferred to the cell plate by FLIPR and the plate was kept in the dark at 25° C. for 30 minutes. The agonist solution, 0.2 μM of deoxycholic acid-3-phosphoric acid in assay buffer, was added to each well of the plate. The plate was read for 160 sec with 1 sec interval to obtain data of antagonist mode in FLIPR. […] Those skilled in the art appreciate that IC50 of various compounds can be assessed in accordance with the present disclosure.

T1 sequence (Q96LA9 whole entry): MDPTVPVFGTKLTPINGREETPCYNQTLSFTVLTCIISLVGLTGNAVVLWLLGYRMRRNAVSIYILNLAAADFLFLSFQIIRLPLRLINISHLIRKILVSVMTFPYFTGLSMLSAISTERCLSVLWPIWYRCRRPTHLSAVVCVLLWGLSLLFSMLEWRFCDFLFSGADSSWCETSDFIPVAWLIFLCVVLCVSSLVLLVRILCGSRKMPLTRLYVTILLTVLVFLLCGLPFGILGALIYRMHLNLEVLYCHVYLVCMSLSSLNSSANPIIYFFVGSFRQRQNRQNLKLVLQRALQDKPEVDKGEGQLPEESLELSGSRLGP

The term inhibition denotes the relative decrease from the control value, in per cent. What is called IC50 is the concentration that gives 50% inhibition. For `O=C(O)c1c(F)ccc2c1ccn2Cc1ccc(C(F)(F)F)c(Cl)c1` [Compound 1], the inhibition at 0.5 µM worked out at 78% and the IC50 was less than 500 nM.

Turning to `O=C(O)c1c(F)ccc2c1ccn2Cc1cccc(C(F)(F)F)c1Cl` [Compound 2], the inhibition at 0.5 µM is 98% and the IC50 is less than 500 nM. As for `O=C(O)c1cccc2c1ccn2Cc1ccc(C(F)(F)F)cc1` [Compound 3], the inhibition at 2 µM was found to be 34% and the half-maximal inhibitory concentration (IC50) was 500 to 5000 nM. `O=C(O)c1cccc2c1ccn2Cc1ccc(C(F)(F)F)cc1Cl` [Compound 4]: the inhibition at 2 µM is 91% and the IC50 is less than 500 nM. On the same counts, the results for `O=C(O)c1cccc2c1CCN2Cc1ccc(C(F)(F)F)cc1` [Compound 5] are 40% and greater than 5000 nM.

As for `O=C(O)c1cccc2c1CCN2Cc1ccc(C(F)(F)F)cc1Cl` [Compound 6], the inhibition at 2 µM came to 18%.

Regarding `O=C(O)c1cccc2c1ccn2Cc1ccc(OC(F)(F)F)cc1` [Compound 7], the inhibition at 0.5 µM was 20%.

For the compound `O=C(O)c1cccc2c1ccn2Cc1ccc(OC(F)(F)F)c(Cl)c1` [Compound 8], the inhibition at 0.5 µM was 64% and the IC50 is less than 500 nM. `O=C(O)c1cccc2c1ccn2Cc1cccc(C(F)(F)F)c1` [Compound 9]: the inhibition at 0.5 µM is -1.6%.

Consider `O=C(O)c1cccc2c1ccn2Cc1ccc(Cl)c(C(F)(F)F)c1` [Compound 10], for which the inhibition at 0.5 µM worked out at 90% and the IC50 is less than 500 nM.

As to `O=C(O)c1cccc2c1ccn2Cc1ccccc1C(F)(F)F` [Compound 11], the inhibition at 0.5 µM is -1.2%. `O=C(O)c1cccc2c1ccn2Cc1cccc(C(F)(F)F)c1Cl` [Compound 12]: the inhibition at 2 µM came out at 101% and the IC50 is less than 500 nM. For the compound `O=C(O)c1ncnc2c1ccn2Cc1cccc(C(F)(F)F)c1Cl` [Compound 13], the inhibition at 0.5 µM was found to be 27%. Turning to `O=C(O)c1ncnc2c1ccn2Cc1ccc(C(F)(F)F)c(Cl)c1` [Compound 14], the inhibition at 0.5 µM turned out to be 12%.

Turning to `CC(c1ccc(C(F)(F)F)cc1)n1ccc2c(C(=O)O)cccc21` (centres unmarked) [Compound 15], the inhibition at 0.5 µM is 5.3%. For the compound `O=C(O)c1cccc2c1ccn2Cc1ccc(C(F)(F)F)cc1F` [Compound 16], the inhibition at 2 µM was 94% and the IC50 is less than 500 nM. `Cc1cn(Cc2cc(C(F)(F)F)ccc2Cl)c2cccc(C(=O)O)c12` [Compound 17]: the inhibition at 2 µM came out at 3.6%. Same read-out and setting: the figure for `Cc1cc2c(C(=O)O)cccc2n1Cc1cc(C(F)(F)F)ccc1Cl` [Compound 18] is 7.2%.

Consider `O=C(O)c1cccc2c1ccn2Cc1ccc(C(F)(F)F)c(Cl)c1` [Compound 19, 1-(3-chloro-4-(trifluoromethyl)benzyl)-1H-indole-4-carboxylic acid], for which the inhibition at 2 µM came out at 99.7% and the IC50 was less than 500 nM. Turning to `Cc1cn(Cc2ccc(C(F)(F)F)cc2Cl)c2cccc(C(=O)O)c12` [Compound 20], the inhibition at 2 µM turned out to be 97% and the IC50 is 500 to 5000 nM.

On to `Cc1cc2c(C(=O)O)cccc2n1Cc1ccc(C(F)(F)F)cc1Cl` [Compound 21], for which the inhibition at 2 µM stood at 52%.

Consider `O=C(O)c1cccc2c1ccn2Cc1c(Cl)cccc1C(F)(F)F` [Compound 22], for which the inhibition at 2 µM came to 2.4%.

With `O=C(O)c1cccc2c1ccn2Cc1cc(Cl)cc(C(F)(F)F)c1` [Compound 23], the inhibition at 2 µM was determined as 29%. Turning to `O=C(O)c1cccc2c1ccn2Cc1cccc(C(F)(F)F)c1F` [Compound 24], the inhibition at 0.5 µM was 20%. On to `O=C(O)c1cccc2c1ccn2CCc1ccc(C(F)(F)F)cc1Cl` [Compound 25], for which the IC50 is greater than 5000 nM.

With `O=C(O)c1cccc2c1ncn2Cc1ccc(C(F)(F)F)cc1Cl` [Compound 26], the inhibition at 2 µM amounted to 49%. The same measure, in the same setting: to `O=C(O)c1cccc2c1cnn2Cc1ccc(C(F)(F)F)cc1Cl` [Compound 27] belongs 72%. Turning to `O=C(O)c1cc(F)cc2c1ccn2Cc1cccc(C(F)(F)F)c1Cl` [Compound 28], the inhibition at 0.5 µM was found to be 86% and the IC50 was less than 500 nM.

As to `O=C(O)c1cc(Cl)cc2c1ccn2Cc1cccc(C(F)(F)F)c1Cl` [Compound 29], the inhibition at 0.5 µM came out at 76% and the IC50 is less than 500 nM. On the same counts, the results for `O=C(O)c1cc(Br)cc2c1ccn2Cc1cccc(C(F)(F)F)c1Cl` [Compound 30] are 97% and less than 500 nM.

As to `O=C(O)c1cccc2c1ccn2Cc1c(Cl)cc(C(F)(F)F)cc1Cl` [Compound 31], the inhibition at 2 µM is -6.2%.

In the case of `O=C(O)c1cccc2c1ccn2Cc1c(Cl)cccc1Cl` [Compound 32], the inhibition at 2 µM is -13%. With `O=C(O)c1cccc2c1ccn2Cc1ccc(C(F)(F)F)cc1Br` [Compound 33], the inhibition at 2 µM turned out to be 98% and the IC50 is 500 to 5000 nM.

Turning to `O=C(O)c1cccc2c1cnn2Cc1cc(C(F)(F)F)ccc1Cl` [Compound 34], the inhibition at 2 µM is -2.4%.

As to `O=C(O)c1cccc2c1ccn2Cc1cc(C(F)(F)F)ccc1Cl` [Compound 35], the inhibition at 2 µM was 5.1%.

Turning to `O=C(O)c1cccc2c1ccn2Cc1ccccc1Cl` [Compound 36], the inhibition at 2 µM came to 0.4%. Still for that read-out and setting: the figure for `O=C(O)c1cccc2c1ccn2CCc1cc(C(F)(F)F)ccc1Cl` [Compound 37] is 5.5%. For `O=C(O)c1cc(C2CC2)cc2c1ccn2Cc1cccc(C(F)(F)F)c1Cl` [Compound 38], the inhibition at 0.5 µM was 44%. Consider `O=C(O)c1cc(-c2ccccc2)cc2c1ccn2Cc1cccc(C(F)(F)F)c1Cl` [Compound 39], for which the inhibition at 0.5 µM amounted to 1.6%. As to `O=C(O)c1ccc(Cl)c2c1ccn2Cc1cccc(C(F)(F)F)c1Cl` [Compound 40], the inhibition at 0.5 µM worked out at 4.9%. With `FC(F)(F)c1ccc(Cn2ccc3c(-c4nnn[nH]4)cccc32)cc1` [Compound 41], the inhibition at 2 µM is 81%. As to `FC(F)(F)c1ccc(Cn2ccc3c(-c4nnn[nH]4)cccc32)c(Cl)c1` [Compound 42], the inhibition at 2 µM was 100% and the IC50 was less than 500 nM. On the same counts, the results for `Fc1cc(C(F)(F)F)ccc1Cn1ccc2c(-c3nnn[nH]3)cccc21` [Compound 43] are 96% and less than 500 nM.

As for `FC(F)(F)c1cccc(Cn2ccc3c(-c4nnn[nH]4)cccc32)c1Cl` [Compound 44], the inhibition at 2 µM was 65% and the IC50 fell in the range of 500 to 5000 nM.

Take `FC(F)(F)c1ccc(Cn2ccc3c(-c4nnn[nH]4)cccc32)c(Br)c1` [Compound 45]: the inhibition at 2 µM came out at 100% and the IC50 was less than 500 nM. On the same counts, the results for `FC(F)(F)c1ccc(Cn2ccc3c(-c4nnn[nH]4)cccc32)cc1Cl` [Compound 46] are 99.9% and less than 500 nM. As for `FC(F)(F)c1cccc(Cn2ccc3c(-c4nnn[nH]4)ncnc32)c1Cl` [Compound 47], the inhibition at 0.5 µM was 13%. Take `FC(F)(F)c1ccc(Cn2ccc3c(-c4nnn[nH]4)ncnc32)cc1Cl` [Compound 48]: the inhibition at 0.5 µM is 4.3%.

For the compound `Fc1cc(-c2nnn[nH]2)c2ccn(Cc3cccc(C(F)(F)F)c3Cl)c2c1` [Compound 50], the inhibition at 0.5 µM is -11.2%. As to `Fc1ccc2c(ccn2Cc2ccc(C(F)(F)F)c(Cl)c2)c1-c1nnn[nH]1` [Compound 51], the inhibition at 0.5 µM worked out at 99.9% and the IC50 was less than 500 nM. `NC(=O)c1cccc2c1ccn2Cc1cccc(C(F)(F)F)c1Cl` [Compound 53]: the inhibition at 0.5 µM is -7.6%. With `NC(=O)c1cccc2c1ccn2Cc1ccc(C(F)(F)F)c(Cl)c1` [Compound 54], the inhibition at 0.5 µM was 11%. For `NC(=O)c1c(F)ccc2c1ccn2Cc1cccc(C(F)(F)F)c1Cl` [Compound 55], the inhibition at 0.5 µM was 36%.
